One test relates to GBM5522. Description: Antiproliferative activity, MTT assay, GBM5522. It is filed as cell-based. The note with it: low-passage glioblastoma GBM5522, 72 h. In general terms: Formazan colour is commonly taken as a measure of viable cells.
The next test relates to GBM6138. The test is described as follows: Antiproliferative activity, MTT assay, GBM6138. The class given is cell-based. Particulars: low-passage glioblastoma GBM6138, 72 h.

SMILES strings stand for the structures.

One may read the IC50 as the concentration that inhibits the measured activity by half. A higher IC50 goes with weaker potency in that assay. Take `COc1cccc(NC(=O)CSc2nc(N3CCNCC3)c3c(c2C#N)CC(C)(C)OC3)c1` [DO11-47, 2-[(5-Cyano-3,3-dimethyl-8-piperazin-1-yl-3,4-dihydro-1H-pyrano[3,4-c]pyridin-6-yl)thio]-N-(3-methoxyphenyl)acetamide]: the results for the IC50 in the test with GBM5522 and in the test with GBM6138 were 20 ± 6.8 µM and 104 ± 22.1 µM, respectively.

Regarding `CNC(=O)c1cc(Oc2ccc(NC(=O)Nc3ccc(Cl)c(C(F)(F)F)c3)cc2)ccn1` [Sorafenib, reference compound], the IC50 in the test with GBM5522 came out at 84 ± 14 µM.

As for `COc1ccccc1NC(=O)CSc1nc(N2CCNCC2)c2c(c1C#N)CC(C)(C)OC2` [DO11-48, 2-[(5-Cyano-3,3-dimethyl-8-piperazin-1-yl-3,4-dihydro-1H-pyrano[3,4-c]pyridin-6-yl)thio]-N-(2-methoxyphenyl)acetamide], the IC50 with GBM5522 was determined as 3.8 ± 1.5 µM; in the test on GBM6138, 27.9 ± 2.6 µM.

For `CC1(C)Cc2c(C#N)c(SCc3ccccc3Cl)nc(N3CCNCC3)c2CO1` [DO11-42, 6-[(2-Chlorobenzyl)thio]-3,3-dimethyl-8-piperazin-1-yl-3,4-dihydro-1H-pyrano[3,4-c]pyridine-5-carbonitrile], the figures for the IC50 with GBM5522 and with GBM6138 were 4.2 ± 1.3 µM and 51.2 ± 10.7 µM, respectively.

As for `CC1(C)Cc2c(C#N)c(SCC(N)=O)nc(N3CCNCC3)c2CO1` [DO11-37, 2-[(5-Cyano-3,3-dimethyl-8-piperazin-1-yl-3,4-dihydro-1H-pyrano[3,4-c]pyridin-6-yl)thio]acetamide], the half-inhibitory concentration (IC50) in the test with GBM5522 was 309 ± 63.3 µM; in the test on GBM6138, 571 ± 77.7 µM.

As to `CC(=O)c1ccc(NC(=O)CSc2nc(N3CCNCC3)c3c(c2C#N)CC(C)(C)OC3)cc1` [DO11-50, N-(4-acetylphenyl)-2-[(5-cyano-3,3-dimethyl-8-piperazin-1-yl-3,4-dihydro-1H-pyrano[3,4-c]pyridin-6-yl)thio]acetamide], the IC50 amounted to 15.9 ± 4.2 µM with GBM5522 and 54.7 ± 28.7 µM in the test on GBM6138.

For the origin of these results see publication PMC12071598, “Piperazine-Substituted Pyranopyridines Exhibit Antiproliferative Activity and Act as Inhibitors of HBV Virion Production” (International Journal of Molecular Sciences, 2025).
